Data on 16 molecules can be found in US8906925B2, “Pyrido[4,3-B]indoles containing rigid moieties” (Medivation Technologies, Inc., priority 2008, dated 2014).

The target of assay [1] is human dopamine D2L receptor (Homo sapiens, UniProt P14416). The assay can be described thus: Dopamine D2L radioligand binding ([3H]Spiperone). Particulars: compound at 1 μM. The text has this:
Non-specific binding was estimated in the presence of […] Haloperidol. Receptor proteins were filtered and washed, the filters were then counted to determine [^3H]Spiperone specifically bound. […] Biochemical assay results are presented as the percent inhibition of specific binding in Table 9.

The target of assay [2] is human recombinant serotonin (5-Hydroxytryptamine) 5-HT7 receptor (Homo sapiens, UniProt P34969). The assay is described as follows: Serotonin 5-HT7 radioligand binding ([3H]LSD). Particulars: compound at 0.1 μM; read-out: Inhibition of ligand binding, Serotonin 5-HT7 (percent inhibition of specific binding). The text has this: Receptor proteins were filtered and washed, the filters were then counted to determine [^3H]LSD specifically bound.

Assay [3] deals with T1, human recombinant serotonin (5-Hydroxytryptamine) 5-HT2A receptor (Homo sapiens, UniProt P28223).
T1 construct: expressed in transfected cells; host or cells: Chinese hamster ovary (CHO-K1) cells
The assay is described as follows: Serotonin 5-HT2A radioligand binding ([3H]Ketanserin). Particulars: for inhibition at 0.1 µM: read-out: Inhibition of ligand binding, Serotonin 5-HT2A (percent inhibition of specific binding), compound at 0.1 μM; for inhibition at 1 µM: read-out: Inhibition of ligand binding, Serotonin 5-HT2A (percent inhibition of specific binding), compound at 1 μM. As to the method:
Compounds of the invention were incubated with 0.5 nM [^3H]Ketanserin for 60 min. at 25° C. Non-specific binding was estimated in the presence of 1 μM Mianserin. Receptor proteins were filtered and washed, the filters were then counted to determine [^3H]Ketanserin specifically bound.

Assay [4] concerns the target T2, human recombinant serotonin (5-Hydroxytryptamine) 5-HT6 receptor (Homo sapiens, UniProt P50406).
T2 construct: expressed in transfected cells; host or cells: human HeLa cells
The assay can be described thus: Serotonin 5-HT6 radioligand binding ([3H]LSD). Particulars: read-out: Inhibition of ligand binding, Serotonin 5-HT6 (percent inhibition of specific binding); for inhibition at 0.1 µM: compound at 0.1 μM. As for the experimental part:
Compounds of the invention were incubated with 1.5 nM [3H]Lysergic acid diethylamide (LSD) for 120 min. at 37° C. […] Receptor proteins were filtered and washed, the filters were then counted to determine [3H]LSD specifically bound. Compounds were screened at 1 μM or lower, using 1% DMSO as vehicle. Biochemical assay results are presented as the percent inhibition of specific binding in Table 10.

Assay [5] addresses T3, human recombinant serotonin (5-Hydroxytryptamine) 5-HT2C receptor (Homo sapiens, UniProt P28335).
T3 construct: expressed in transfected cells; host or cells: Chinese hamster ovary (CHO-K1) cells
T3 sequence (P28335 33-458): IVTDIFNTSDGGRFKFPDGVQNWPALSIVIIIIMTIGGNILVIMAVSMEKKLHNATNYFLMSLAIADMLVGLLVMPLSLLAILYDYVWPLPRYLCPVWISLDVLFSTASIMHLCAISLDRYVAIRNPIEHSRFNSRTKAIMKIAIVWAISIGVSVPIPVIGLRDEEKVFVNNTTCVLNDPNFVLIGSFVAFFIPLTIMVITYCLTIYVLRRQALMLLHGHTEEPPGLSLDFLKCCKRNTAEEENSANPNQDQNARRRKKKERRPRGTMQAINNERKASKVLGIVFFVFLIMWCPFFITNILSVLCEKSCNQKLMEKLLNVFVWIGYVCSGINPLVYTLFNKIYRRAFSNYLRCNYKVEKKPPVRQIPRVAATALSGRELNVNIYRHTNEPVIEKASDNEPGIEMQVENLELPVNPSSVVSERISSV
The assay can be described thus: Serotonin 5-HT2C radioligand binding ([3H]Mesulergine). To be noted: read-out: Inhibition of ligand binding, Serotonin 5-HT2C (percent inhibition of specific binding); for inhibition at 0.1 µM: compound at 0.1 μM. As to the method:
Compounds of the invention were incubated with 1 nM [^3H]Mesulergine for 60 min. at 25° C. Non-specific binding was estimated in the presence of 1 μM Mianserin. Receptor proteins were filtered and washed, the filters were then counted to determine [^3H]Mesulergine specifically bound. Compounds were screened at 1 μM or lower, using 1% DMSO as vehicle. Biochemical assay results are presented as the percent inhibition of specific binding in Table 10.

Another assay concerns the target histamine receptor H1 (Homo sapiens, UniProt P35367). The assay is described as follows: Histamine H1 radioligand binding ([3H]Pyrilamine). To be noted: read-out: Histamine Binding (1 μM) H1, percent inhibition of specific binding, 1 μM. The procedure, abridged:
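Values are percent inhibition of specific [3H]pyrilamine (1.2 nM) binding with compounds at ≤1 μM (1% DMSO vehicle); 180 min incubation at 25 °C, pH 7.4 Tris buffer, on CHO-expressed human H1 receptor; 1 μM pyrilamine defined nonspecific binding, bound ligand counted after filtration.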

[6] abbreviates: percent inhibition of specific binding, read-out: Inhibition of ligand binding, Dopamine D2L.
Setting [7] is: […] [3H]Spiperone, read-out: Inhibition of ligand binding, Dopamine D2L (percent inhibition of specific binding).

The structures appear in SMILES notation. Where two headings read alike, the source gives them in different places.

T2 sequence (P50406 whole entry): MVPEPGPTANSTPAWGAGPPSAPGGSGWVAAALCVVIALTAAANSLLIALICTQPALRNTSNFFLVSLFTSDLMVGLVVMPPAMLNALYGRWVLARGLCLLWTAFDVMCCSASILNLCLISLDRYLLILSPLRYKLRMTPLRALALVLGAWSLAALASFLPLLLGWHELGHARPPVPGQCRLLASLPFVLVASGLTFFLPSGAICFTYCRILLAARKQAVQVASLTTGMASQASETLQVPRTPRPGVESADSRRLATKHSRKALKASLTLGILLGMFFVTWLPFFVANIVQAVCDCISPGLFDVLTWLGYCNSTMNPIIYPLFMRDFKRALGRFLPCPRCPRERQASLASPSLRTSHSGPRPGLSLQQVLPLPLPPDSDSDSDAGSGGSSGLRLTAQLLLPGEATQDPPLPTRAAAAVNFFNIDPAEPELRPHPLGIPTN
T1 sequence (P28223 whole entry): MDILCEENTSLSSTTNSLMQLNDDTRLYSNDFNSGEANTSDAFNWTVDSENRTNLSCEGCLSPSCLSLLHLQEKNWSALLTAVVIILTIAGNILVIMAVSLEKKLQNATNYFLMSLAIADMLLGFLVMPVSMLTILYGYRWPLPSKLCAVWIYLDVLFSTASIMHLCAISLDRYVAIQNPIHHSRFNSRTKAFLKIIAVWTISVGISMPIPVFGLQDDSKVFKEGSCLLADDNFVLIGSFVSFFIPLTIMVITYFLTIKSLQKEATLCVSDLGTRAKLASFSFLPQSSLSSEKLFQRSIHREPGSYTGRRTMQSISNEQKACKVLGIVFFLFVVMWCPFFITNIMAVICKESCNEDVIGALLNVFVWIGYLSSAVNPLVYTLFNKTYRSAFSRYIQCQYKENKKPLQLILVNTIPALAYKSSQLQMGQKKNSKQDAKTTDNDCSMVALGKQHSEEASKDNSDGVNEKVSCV
Sequence of histamine receptor H1 (P35367 whole entry): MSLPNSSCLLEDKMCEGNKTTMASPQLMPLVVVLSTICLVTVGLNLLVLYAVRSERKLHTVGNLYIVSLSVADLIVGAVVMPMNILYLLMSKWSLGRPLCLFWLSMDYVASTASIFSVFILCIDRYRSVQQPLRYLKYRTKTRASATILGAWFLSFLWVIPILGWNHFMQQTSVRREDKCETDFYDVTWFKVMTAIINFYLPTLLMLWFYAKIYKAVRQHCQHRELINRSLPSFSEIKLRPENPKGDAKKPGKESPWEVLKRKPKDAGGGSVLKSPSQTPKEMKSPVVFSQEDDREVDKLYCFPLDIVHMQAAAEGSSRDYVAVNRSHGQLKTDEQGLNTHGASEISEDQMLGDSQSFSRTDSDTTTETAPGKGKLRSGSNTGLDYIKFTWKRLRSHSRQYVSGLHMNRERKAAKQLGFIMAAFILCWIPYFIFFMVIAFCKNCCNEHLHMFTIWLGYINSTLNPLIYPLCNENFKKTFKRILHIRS
Sequence of human dopamine D2L receptor (P14416 whole entry): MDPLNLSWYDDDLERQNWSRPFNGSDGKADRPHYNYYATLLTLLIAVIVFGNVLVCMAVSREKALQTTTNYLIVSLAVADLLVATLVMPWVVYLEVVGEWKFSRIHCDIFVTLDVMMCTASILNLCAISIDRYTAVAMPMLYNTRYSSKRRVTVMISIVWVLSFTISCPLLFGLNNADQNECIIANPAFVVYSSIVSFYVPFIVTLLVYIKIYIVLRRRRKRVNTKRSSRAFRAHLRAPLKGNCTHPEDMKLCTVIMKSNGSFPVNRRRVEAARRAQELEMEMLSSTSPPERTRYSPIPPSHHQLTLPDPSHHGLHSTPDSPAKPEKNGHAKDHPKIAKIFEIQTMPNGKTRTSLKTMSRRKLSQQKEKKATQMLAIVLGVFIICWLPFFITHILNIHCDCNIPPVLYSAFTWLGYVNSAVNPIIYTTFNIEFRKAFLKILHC
Sequence of human recombinant serotonin (5-Hydroxytryptamine) 5-HT7 receptor (P34969 whole entry): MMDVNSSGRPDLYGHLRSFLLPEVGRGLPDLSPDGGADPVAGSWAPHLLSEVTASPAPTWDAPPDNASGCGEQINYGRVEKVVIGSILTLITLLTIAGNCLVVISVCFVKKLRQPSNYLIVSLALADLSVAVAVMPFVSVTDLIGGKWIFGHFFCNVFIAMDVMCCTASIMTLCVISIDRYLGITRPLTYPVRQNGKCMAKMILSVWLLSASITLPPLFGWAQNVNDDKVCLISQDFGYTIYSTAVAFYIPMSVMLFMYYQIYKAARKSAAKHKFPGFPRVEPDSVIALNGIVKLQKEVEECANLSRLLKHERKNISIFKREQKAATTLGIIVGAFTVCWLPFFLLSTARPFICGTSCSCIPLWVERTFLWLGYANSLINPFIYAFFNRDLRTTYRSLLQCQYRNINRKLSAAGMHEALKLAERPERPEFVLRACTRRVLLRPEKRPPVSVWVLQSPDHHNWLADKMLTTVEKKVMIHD

`COc1ccc([C@@](C)(O)Cn2c3c(c4cc(C)ccc42)CN(C)CC3)cc1` [Compound 192, 1-(2,8-dimethyl-3,4-dihydro-1H-pyrido[4,3-b]indol-5(2H)-yl)-2-(4-methoxyphenyl)propan-2-ol]: the inhibition at 1 µM in assay [1] (setting [6]) came out at 34%; on histamine receptor H1, 61%. Moreover, the inhibition at 0.1 µM in assay [2] came to 78%; in assay [3], 91%; in assay [4], 38%; in assay [5], 81%.
As for `CN1CCc2c(c3cccc(Cl)c3n2C[C@@](C)(O)c2ccncc2)C1` [Compound No. 469, (S)-1-(6-chloro-2-methyl-3,4-dihydro-1H-pyrido[4,3-b]indol-5(2H)-yl)-2-(pyridin-4-yl)propan-2-ol], the inhibition at 1 µM in assay [1] (setting [7]) was determined as 12%; in assay [3], 87%; on histamine receptor H1 it was 14%.
On to `C/C(=C\n1c2c(c3ccccc31)CN(C)CC2)c1ccc(C)nc1` [Compound 254, (E)-2-methyl-5-(2-(6-methylpyridin-3-yl)prop-1-enyl)-2,3,4,5-tetrahydro-1H-pyrido[4,3-b]indole], for which the inhibition at 1 µM in assay [1] (setting [6]) was 11%; on histamine receptor H1 it was 7%. Besides, the inhibition at 0.1 µM was determined as 63% in assay [2], 65% in assay [3], 15% in assay [4] and 52% in assay [5].
As to `CC(C)/C(=C/n1c2c(c3cc(Cl)ccc31)CN(C)CC2)c1ccncc1` [Compound 265, (Z)-8-chloro-2-methyl-5-(3-methyl-2-(pyridin-4-yl)but-1-enyl)-2,3,4,5-tetrahydro-1H-pyrido[4,3-b]indole], the inhibition at 1 µM was 73% in assay [1] (setting [6]) and 22% at histamine receptor H1. Moreover, the inhibition at 0.1 µM in assay [2] was found to be 52%; in assay [3], 96%; in assay [4], 97%; in assay [5], 89%.
Turning to `C/C(=C\n1c2c(c3ccc(Cl)cc31)CN(C)CC2)c1ccc(C)nc1` [Compound 253, (E)-7-chloro-2-methyl-5-(2-(6-methylpyridin-3-yl)prop-1-enyl)-2,3,4,5-tetrahydro-1H-pyrido[4,3-b]indole], the inhibition at 1 µM in assay [1] (setting [6]) turned out to be 22%; on histamine receptor H1, 20%. The inhibition at 0.1 µM in assay [2] amounted to 54%; in assay [3], 85%; in assay [4], 9%; in assay [5] it was 49%.
Take `CN1CCc2c(c3cccc(Cl)c3n2C[C@](C)(O)c2ccncc2)C1` [Compound No. 470, (R)-1-(6-chloro-2-methyl-3,4-dihydro-1H-pyrido[4,3-b]indol-5(2H)-yl)-2-(pyridin-4-yl)propan-2-ol]: the inhibition at 1 µM in assay [1] (setting [7]) is 1%; in assay [3], 89%; on histamine receptor H1, 17%.
Regarding `C/C(=C\n1c2c(c3cc(C)ccc31)CN(C)C(C)C2)c1ccc(F)cc1` (stereo not drawn) [Compound 258, (E)-5-(2-(4-fluorophenyl)prop-1-enyl)-2,3,8-trimethyl-2,3,4,5-tetrahydro-1H-pyrido[4,3-b]indole], the inhibition at 1 µM in assay [1] (setting [6]) is 81%; at histamine receptor H1, 59%. For the same molecule, the inhibition at 0.1 µM in assay [2] is 84%; in assay [3], 98%; in assay [4] it was 81%; in assay [5], 98%.
Turning to `CC/C(=C/n1c2c(c3cc(Cl)ccc31)CN(C)CC2)c1ccncc1` [Compound 282, (Z)-8-chloro-2-methyl-5-(2-(pyridin-4-yl)but-1-enyl)-2,3,4,5-tetrahydro-1H-pyrido[4,3-b]indole], the inhibition at 1 µM in assay [1] (setting [6]) turned out to be 57%; at histamine receptor H1, 31%. Besides, the inhibition at 0.1 µM was 91% in assay [2], 100% in assay [3], 102% in assay [4] and 94% in assay [5].
For `CC(C)C(O)(Cn1c2c(c3cc(Cl)ccc31)CN(C)CC2)c1ccncc1` (stereo not drawn) [Compound 193, 1-(8-chloro-2-methyl-3,4-dihydro-1H-pyrido[4,3-b]indol-5(2H)-yl)-3-methyl-2-(pyridin-4-yl)butan-2-ol], the inhibition at 1 µM in assay [1] (setting [6]) was 14%; on histamine receptor H1, -7%. The inhibition at 0.1 µM in assay [2] was found to be 40%; in assay [3], 69%; in assay [4], 3%; in assay [5], 44%.
`C/C(=C\n1c2c(c3ccc(F)cc31)CN(C)CC2)c1ccc(C)nc1` [Compound 261, (E)-7-fluoro-2-methyl-5-(2-(6-methylpyridin-3-yl)prop-1-enyl)-2,3,4,5-tetrahydro-1H-pyrido[4,3-b]indole]: the inhibition at 1 µM in assay [1] (setting [6]) worked out at 28%; on histamine receptor H1 it was 11%. In addition, the inhibition at 0.1 µM was 47% in assay [2], 74% in assay [3], 4% in assay [4] and 31% in assay [5].
For `CN1CCc2c(c3cc(Cl)ccc3n2CC(C)(O)c2ccncn2)C1` (stereo not drawn) [Compound 198, 1-(8-chloro-2-methyl-3,4-dihydro-1H-pyrido[4,3-b]indol-5(2H)-yl)-2-(pyrimidin-4-yl)propan-2-ol], the inhibition at 1 µM in assay [1] (setting [6]) came to 5%; on histamine receptor H1, 64%. Moreover, the inhibition at 0.1 µM is 4% in assay [2], 23% in assay [3], 11% in assay [4] and -1% in assay [5].
`C/C(=C\n1c2c(c3cc(Cl)ccc31)CN(CCC(C)(C)O)CC2)c1ccncc1` [compound 404, (E)-4-(8-chloro-5-(2-(pyridin-4-yl)prop-1-enyl)-3,4-dihydro-1H-pyrido[4,3-b]indol-2(5H)-yl)-2-methylbutan-2-ol]: the inhibition at 1 µM in assay [1] (setting [7]) stood at 92%; in assay [4] (compound at 1 μM), 95%; in assay [5] (compound at 1 μM), 90%; on histamine receptor H1 it was 37%.
Take `C=CCN1CCc2c(c3cc(Cl)ccc3n2/C=C(\C)c2ccncc2)C1` [compound 406, (E)-2-allyl-8-chloro-5-(2-(pyridin-4-yl)prop-1-enyl)-2,3,4,5-tetrahydro-1H-pyrido[4,3-b]indole]: the inhibition at 1 µM was 96% in assay [1] (setting [7]) and 74% on histamine receptor H1.
In the same order, the values of `CCCCNc1ccc2c(c1)c1c(n2/C=C(\C)c2ccncc2)CCN(C)C1` [compound 444, (E)-N-butyl-2-methyl-5-(2-(pyridin-4-yl)prop-1-enyl)-2,3,4,5-tetrahydro-1H-pyrido[4,3-b]indol-8-amine] are 36% and -13%.
In the same order, the values of `CN1CCc2c(c3cc(Cl)ccc3n2C#Cc2ccc(C(F)(F)F)nc2)C1` [Compound No. 486, 8-chloro-2-methyl-5-((6-(trifluoromethyl)pyridin-3-yl)ethynyl)-2,3,4,5-tetrahydro-1H-pyrido[4,3-b]indole] are 14% and 22%.
The corresponding values for `C/C(=C\n1c2c(c3cc(C)ccc31)CN(C)CC2)c1cccc(S(C)(=O)=O)c1` [Compound No. 473, (E)-2,8-dimethyl-5-(2-(3-(methylsulfonyl)phenyl)prop-1-enyl)-2,3,4,5-tetrahydro-1H-pyrido[4,3-b]indole] are 59% and 35%.

The inhibition is the change of the read-out against control, counted positive when it falls.
